Measurements: PMC8705409, “Synthesis of sp^2-Iminosugar Selenoglycolipids as Multitarget Drug Candidates with Antiproliferative, Leishmanicidal and Anti-Inflammatory Properties” (Molecules, 2021)
Entries after “also recorded” stand apart in the source; their conditions may differ. Like-named read-outs stand apart in the source and are kept apart here.

Assays:
[1] = system: human solid tumor cell lines A549, SW1573, HBL-100, T-47D, HeLa, WiDr; parameters: method as in PMID 28728108; conditions: same assay; read-out: GI50 of reference agent in the same assay; cited from earlier work
[2] = system: A549 (lung) human solid tumor cell line; experiment: Antiproliferative SRB assay (HTS), A549; format: cell-based; conditions: 48 h
Method: (§1) All reagents were used as purchased from commercial suppliers without further purification. The human solid tumor cell lines used in this study were: A549, SW1573 (lung), HBL-100, T-47D (breast), HeLa (cervix) and WiDr (colon). These cell lines were a kind gift from Prof. G.J. Peters (VU Medical Center, Amsterdam, The Netherlands).
(§2) Cells were inoculated onto 96-well microtiter plates in a volume of 100 μL per well at densities of 2500 (A549, HBL-100, HeLa, and SW1573) and 5000 (T-47D and WiDr) cells per well, based on their doubling times. Compounds were initially dissolved in DMSO at 400 times the desired final maximum test concentration. Control cells were exposed to an equivalent concentration of DMSO (0.25% v/v, negative control). Each agent was tested in triplicate at different dilutions in the range of 1–100 μM. The drug treatment started on day 1 after plating. Drug incubation times were 48 h, after which cells were precipitated with 25 μL ice-cold TCA (50% w/v) and fixed for 60 min at 4 °C. Then the SRB assay was performed. The optical density (OD) of each well was measured at 530 nm, using BioTek’s PowerWave XS Absorbance Microplate Reader. Values were corrected for background OD from wells only containing medium. The antiproliferative activity for each compound, expressed as GI50 values, was calculated according to NCI formulas.

[3] = system: SW1573 (lung) human solid tumor cell line; experiment: Antiproliferative SRB assay (HTS), SW1573; format: cell-based; conditions: 48 h
Method: as §1, §2

[4] = system: HBL-100 (breast) human solid tumor cell line; experiment: Antiproliferative SRB assay (HTS), HBL-100; format: cell-based; conditions: 48 h
Method: as §1, §2

[5] = system: T-47D (breast) human solid tumor cell line; experiment: Antiproliferative SRB assay (HTS), T-47D; format: cell-based; conditions: T47D, 48 h
Method: as §1, §2

[6] = system: HeLa (cervix) human solid tumor cell line; experiment: Antiproliferative SRB assay (HTS), HeLa; format: cell-based; conditions: 48 h
Method: as §1, §2

[7] = system: WiDr (colon) human solid tumor cell line; experiment: Antiproliferative SRB assay (HTS), WiDr; format: cell-based; conditions: 48 h
Method: as §1, §2

[8] = system: human solid tumor cell lines A549, SW1573, HBL-100, T-47D, HeLa, WiDr; experiment: Antiproliferative SRB assay (HTS), whole panel of six cell lines; format: cell-based; conditions: for GI50: Homo sapiens, range over the six tumor cell lines, read-out: GI50 against all the cell lines tested
Method: as §1, §2

[9] = system: intracellular amastigotes of Leishmania donovani HU3; experiment: Susceptibility of intracellular Leishmania amastigotes (luciferase) in THP-1 macrophages; format: cell-based; conditions: L. donovani HU3 in macrophage-differentiated THP-1, 72 h, threshold 20 μM
Method: Macrophage-differentiated-THP-1 cells, which are considered a suitable model for human macrophages, were plated at a density of 3 × 10^4 macrophages/well in 96-well white polystyrene microplates, and were infected at a macrophage/parasite ratio of 1:10 with L. donovani HU3 promastigotes. 24 h after infection at 35 °C and 5% CO2, extracellular parasites were removed by washing with serum-free medium. Infected cell cultures were then incubated at different compound concentrations in RPMI 1640 medium plus 10% iFBS at 37 °C with 5% CO2 for 72 h. To determine the susceptibility of L. donovani-LUC amastigotes, infected macrophages maintained in 96-well plates were lysed and then luminescence intensity was measured as indicative of the intracellular parasite growth, using the Luciferase Assay System Kit (Promega, Madison, WI, USA) according to the instructions of the supplier.

[10] = Cellular toxicity, MTT assay, THP-1; format: cell-based; conditions: human, maximal concentration 200 µM, read-out: EC50 THP-1 Cell Line (cytotoxicity)
Method: (§3) Human myelomonocytic cell line THP-1 was grown at 37 °C and 5% CO2 in RPMI-1640 supplemented with 10% iFBS, 2 mM […], 100 U/mL penicillin and 100 μg/mL streptomycin. 3 × 10^4 cells/well in 96-well plates were differentiated to macrophages with 20 ng/mL of PMA treatment for 48 h followed by 24 h of culture in fresh medium. MRC5 cells were grown at 37 °C and 5% CO2 in DMEM complete media. 4000 cells/well in 96-well plates were incubated for 24 h at 37 °C and 5% CO2.
(§4) Cellular toxicity of all compounds was determined using the colorimetric MTT-based assay after incubation at 37 °C for 72 h in the presence of increasing concentrations of compounds (final maximal concentrations 200 µM). The results are expressed as EC50 values, as the concentration of the compound that reduce cell growth by 50% versus untreated control cells. Assays were performed in triplicate.

[11] = Cellular toxicity, MTT assay, MRC-5; format: cell-based; conditions: human, maximal concentration 200 µM, read-out: EC50 MRC-5 Cell Line (cytotoxicity)
Method: as §3, §4

[12] = system: Bv.2 microglia cells; experiment: Cellular viability by crystal violet staining; format: cell-based, mouse; conditions: Bv.2 cells, 24 h, different concentrations
Method: (§5) Mouse microglia Bv.2 cell line was supplied by Dr. M.L. Nieto (IBGM, Valladolid, Spain). Bv.2 cells were cultured at 37 °C in a humidified atmosphere with 5% CO2 in RPMI supplemented with 10% (v/v) heat-inactivated FBS, 1% (v/v) penicillin/streptomycin (Sigma) and 2 mM L-glutamine (Gibco, Carlsbad, CA, USA). Cells were grown up to 70% confluence and then washed twice with PBS and further cultured in serum-free medium and stimulated with LPS (200 ng/mL) with or without 14/10 (0.1–50 µM) for 24 h.
After cell treatments, the medium was discarded, and the remaining viable adherent cells were stained with crystal violet (0.2% w/v in 2% ethanol) for 20 min. After this time, plates were rinsed with tap water and allowed to dry, and 1% SDS was added to solubilize them. The absorbance of each plate was read spectrophotometrically at 560 nm.

[13] = system: nitrite production in Bv.2 microglial cells; experiment: Nitrite production in LPS-stimulated Bv.2 cells (Griess method); format: cell-based, mouse; conditions: LPS 200 ng/mL, 24 h
Method: as §5
Nitrite levels were measured by using the Griess method. Briefly, nitrites turn into a pink compound in contact with an acid solution containing 1% sulphanilamide and 0.1% N-(1-naphthyl)ethylenediamine (NEDA), and can be quantified by a colorimetric method at 540 nm in a microplate reader (Versamax Tunable Microplate reader, Molecular Devices, Sunnyvaley, CA, USA).

[14] = system: iNOS expression in Bv.2 microglial cells; experiment: LPS-induced iNOS protein expression (Western blot); format: cell-based, mouse; conditions: Bv.2 cells, LPS 200 ng/mL
Method: as §5
(§6) Bv.2 microglial cells were homogenized in lysis buffer containing 50 mM Tris-HCl, pH 7.4, 150 mM NaCl, 1 mM Na3VO4, 1 mM NaF, 1 mM EGTA, […] and 0.25% (w/v) sodium deoxycholate, supplemented with protease inhibitors (10 µg/mL leupeptin, 10 µg/mL aprotinin, and 100 µg/mL phenylmethylsulphonyl fluoride). All debris was removed by centrifugation at 14,000× g for 10 min at 4 °C and protein concentration was quantified using the Bio-Rad protein assay with BSA as a standard. Equivalent amounts of protein were resolved using denaturing sodium dodecyl sulphate-polyacrylamide gel electrophoresis (SDS-PAGE), followed by transfer to PVDF membranes (Bio-Rad). […]
(§7) Densitometry of the Western blots was performed using the ImageJ program. […] Data were analyzed by one-way ANOVA followed by Bonferroni t-test or by paired t-test when comparisons were among two groups. […]

[15] = system: arginase-1 expression in Bv.2 microglial cells; experiment: Arginase-1 levels (Western blot); format: cell-based, mouse; conditions: Bv.2 cells, absence or presence of LPS 200 ng/mL; 10 at 10 μM, 14 at 50 μM
Method: as §5, §6, §7

[16] = THP-1 cells differentiated to macrophages with PMA

Compound | GI50 [1] | GI50 [2] | GI50 [3] | GI50 [4] | GI50 [5] | GI50 [6] | GI50 [7] | antiproliferative activity ([8]; panel of six tumor cell lines) | EC50 [9] | EC50 at 72 h [10] | EC50 at 72 h [11] | GI50 [8] | effect on cellular viability [12] | concentration at which nitrite production reached basal level [13] | effect on LPS-elicited enhancement of iNOS ([14]; compound at 10 μM) | induction of arginase-1 [15] | EC50 at 72 h [10, 16] | EC50 at 72 h ([11]; MRC-5 cells) | iNOS increase remaining after treatment (LPS alone 20-fold) ([14]; compound at 50 μM (five-fold higher concentration))
O=c1[nH]cc(F)c(=O)[nH]1 [Compound 5-FU, 5-fluorouracyl] | 5 to 50 µM |  |  |  |  |  |  |  |  |  |  |  |  |  |  |  |  |  | 
O=C1OC[C@@H]2[C@@H](O)[C@H](O)[C@@H](O)[C@@H]([Se]c3ccccc3)N12 [Compound 8, (1R)-1-Phenylseleno-5N,6O-oxomethylidenenojirimycin] |  | > 100 µM | > 100 µM | > 100 µM | > 100 µM | > 100 µM | > 100 µM | lack of activity; also recorded: inactive | > 20 µM | > 200 µM | 172 ± 27 µM |  |  |  |  |  |  |  | 
CCCCCCCC[Se][C@@H]1[C@H](O)[C@@H](O)[C@H](O)[C@H]2COC(=O)N21 [Compound 9, (1R)-1-Octylseleno-5N,6O-oxomethylidenenojirimycin] |  | 36 µM | > 100 µM | > 100 µM | 71 µM | 49 µM | 64 µM |  | > 20 µM | > 200 µM | 94.3 ± 4.95 µM | ≥ 36 µM |  |  |  |  |  |  | 
CCCCCCCCCCCC[Se][C@@H]1[C@H](O)[C@@H](O)[C@H](O)[C@H]2COC(=O)N21 [Compound 10, (1R)-1-Dodecylseleno-5N,6O-oxomethylidenenojirimycin] |  | 18 µM | 28 µM | 24 µM | 21 µM | 22 µM | 22 µM |  | 13.4 ± 1.63 µM | 84.25 ± 0.06 µM | 31.2 ± 1.61 µM | 16 to 28 µM | none of the concentrations used induced a negative effect | 10 µM | fully abrogated | direct effect on the induction of arginase-1 |  |  | 
CCCCCCCCN[C@@H]1[C@H](O)[C@@H](O)[C@H](O)[C@H]2COC(=O)N21 [Compound 11, (1S)-1-amino-N-octyl-5N,6O-oxomethylidene-1-deoxynojirimycin] |  | > 100 µM | > 100 µM | > 100 µM | > 100 µM | > 100 µM | > 100 µM |  | > 20 µM |  |  | > 100 µM |  |  |  |  | 209 ± 10.3 µM | 155 ± 5.3 µM | 
CCCCCCCCCCCCN[C@@H]1[C@H](O)[C@@H](O)[C@H](O)[C@H]2COC(=O)N21 [Compound 12, (1S)-1-Amino-N-dodecyl-5N,6O-oxomethylidene-1-deoxynojirimycin] |  | 18 µM | 30 µM | 23 µM | 23 µM | 23 µM | 22 µM |  | > 20 µM |  |  | 18 to 30 µM |  |  |  |  | 122 ± 13.3 µM | 49.6 ± 4.2 µM | 
CCCCCCCCS[C@@H]1[C@H](O)[C@@H](O)[C@H](O)[C@H]2COC(=O)N21 [Compound 13, (1R)-1-octylthio-5N,6O-oxomethylidenenojirimycin] |  | 58 µM | > 100 µM | 73 µM | 95 µM | 92 µM | 89 µM |  | > 20 µM |  |  | ≥ 36 µM |  |  |  |  | 122 ± 5.79 µM | 58.1 ± 12.6 µM | 
CCCCCCCCCCCCS[C@@H]1[C@H](O)[C@@H](O)[C@H](O)[C@H]2COC(=O)N21 [Compound 14, (1R)-1-dodecylthio-5N,6O-oxomethylidenenojirimycin] |  | 16 µM | 18 µM | 17 µM | 18 µM | 17 µM | 18 µM |  | > 20 µM |  |  | 16 to 28 µM | none of the concentrations used induced a negative effect | 50 µM |  | did not induce arginase-1 expression | 70.5 ± 3.75 µM | 43.1 ± 9.83 µM | about 8 fold
CCCCCCCCCCCCCCCCOP(=O)([O-])OCC[N+](C)(C)C [Miltefosine, reference compound] |  |  |  |  |  |  |  |  | 0.44 ± 0.08 µM |  |  |  |  |  |  |  | 26.9 ± 3.08 µM | 57.6 ± 6.38 µM | 
